Test results taken from patent publication US10047083B2, “Dihydropyrimidinoisoquinolinones and pharmaceutical compositions thereof for the treatment of inflammatory disorders” (GALAPAGOS NV, priority 2011, dated 2018).

What follows are compounds tested against T1, GPR84 (Homo sapiens, UniProt Q9NQS5) (assay: GTPγS binding assay (GPR84)). Conditions: membranes from stable cell line over expressing GPR84; 3,3′ di indolylmethane at EC80.
T1 construct: expressed in transfected cells; membranes used
T1 sequence (Q9NQS5 whole entry): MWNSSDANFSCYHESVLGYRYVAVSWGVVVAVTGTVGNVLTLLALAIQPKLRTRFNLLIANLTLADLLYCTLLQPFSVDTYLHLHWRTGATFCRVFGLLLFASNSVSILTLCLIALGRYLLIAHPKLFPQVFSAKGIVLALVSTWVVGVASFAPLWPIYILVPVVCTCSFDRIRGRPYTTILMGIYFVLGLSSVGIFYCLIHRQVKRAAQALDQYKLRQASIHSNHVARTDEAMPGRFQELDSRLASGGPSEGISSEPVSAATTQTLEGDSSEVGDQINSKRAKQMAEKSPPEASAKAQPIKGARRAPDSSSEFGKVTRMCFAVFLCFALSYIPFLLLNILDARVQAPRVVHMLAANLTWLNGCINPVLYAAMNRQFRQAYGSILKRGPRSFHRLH
Type: biochemical
Protocol: 1.1. Cell Based Assay: GTp-γS Binding Assay.
The following assay can be used for determination of GPR84 activation.
The assay is performed in a 96 well plate where the following reagents are added. […] In a last step, 30 μL of a mixture consisting of membranes-GTPγS-SpA beads is added [mixture consists of 20 μg/well membranes derived from stable cell line over expressing GPR84 (membranes are pre-incubated with 0.1 μM GDP for 15 min at 4° C.), 0.1 nM [^35S]GTPγS (Perkin Elmer, NEG030) and 0.5 mg/well PVT-WGA SpA beads (Perkin Elmer, RPNQ0001)]. All components are diluted in assay buffer containing 20 mM HEPES pH 7.4; 5 mM MgCl2; 250 mM NaCl; 0.05% BSA; 75 ug/mL saponin. Reactions are incubated for 90 min at room temperature followed by centrifugation at 2000 rpm during 15 min. Plates are read on a Topcount reader (Perkin Elmer) immediately after centrifugation (readout time, 1 min/well).

Row | Compound | IC50
1 | CCCCC(CC)CNc1ccc2c(c1)CCn1c-2cc(OC[C@@H]2COCCO2)nc1=O (stereo partly drawn) [Compound 128, 2-((S)-1-[1,4]dioxan-2-ylmethoxy)-9-(2-ethyl-hexylamino)-6,7-dihydro-pyrimido[6,1-a]isoquinolin-4-one] | 101 to 500 nM
2 | COCCOc1ccc2c(c1)CCn1c-2cc(OC[C@@H]2COCCO2)nc1=O [Compound 129, 2-((S)-1-[1,4]dioxan-2-ylmethoxy)-9-(2-methoxy-ethoxy)-6,7-dihydro-pyrimido[6,1-a]isoquinolin-4-one] | 101 to 500 nM
3 | CCOCCOc1ccc2c(c1)CCn1c-2cc(OC[C@@H]2COCCO2)nc1=O [Compound 130, 2-((S)-1-[1,4]dioxan-2-ylmethoxy)-9-(2-ethoxy-ethoxy)-6,7-dihydro-pyrimido[6,1-a]isoquinolin-4-one] | 101 to 500 nM
4 | O=c1nc(OC[C@@H]2COCCO2)cc2n1CCc1cc(OCC3CC3)ccc1-2 [Compound 131, 9-cyclopropylmethoxy-2-((S)-1-[1,4]dioxan-2-ylmethoxy)-6,7-dihydro-pyrimido[6,1-a]isoquinolin-4-one] | 0.01 to 100 nM
5 | O=c1nc(OC[C@@H]2COCCO2)cc2n1CCc1cc(OCCF)ccc1-2 [Compound 132, 2-((S)-1-[1,4]dioxan-2-ylmethoxy)-9-(2-fluoro-ethoxy)-6,7-dihydro-pyrimido[6,1-a]isoquinolin-4-one] | 501 to 1000 nM
6 | CCOCCOCC#Cc1ccc2c(c1)CCn1c-2cc(OC[C@@H]2COCCO2)nc1=O [Compound 134, 2-((S)-1-[1,4]dioxan-2-ylmethoxy)-9-[3-(2-ethoxy-ethoxy)-prop-1-ynyl]-6,7-dihydro-pyrimido[6,1-a]isoquinolin-4-one] | 101 to 500 nM
7 | O=c1nc(OC[C@@H]2COCCO2)cc2n1CCc1cc(C#CCOCCF)ccc1-2 [Compound 135, 2-((S)-1-[1,4]dioxan-2-ylmethoxy)-9-[3-(2-fluoro-ethoxy)-prop-1-ynyl]-6,7-dihydro-pyrimido[6,1-a]isoquinolin-4-one] | 101 to 500 nM
8 | CC(C)(C)COCc1ccc2c(c1)CCn1c-2cc(OC[C@@H]2COCCO2)nc1=O [Compound 136, 9-(2,2-dimethyl-propoxymethyl)-2-((S)-1-[1,4]dioxan-2-ylmethoxy)-6,7-dihydro-pyrimido[6,1-a]isoquinolin-4-one] | 0.01 to 100 nM
9 | O=c1nc(OC[C@@H]2COCCO2)cc2n1CCc1cc(COC3CCCCC3)ccc1-2 [Compound 137, 9-cyclohexyloxymethyl-2-((S)-1-[1,4]dioxan-2-ylmethoxy)-6,7-dihydro-pyrimido[6,1-a]isoquinolin-4-one] | 0.01 to 100 nM
10 | O=c1nc(OC[C@@H]2COCCO2)cc2n1CCc1cc(COCC3CC3)ccc1-2 [Compound 138, 9-cyclopropylmethoxymethyl-2-((S)-1-[1,4]dioxan-2-ylmethoxy)-6,7-dihydro-pyrimido[6,1-a]isoquinolin-4-one] | 0.01 to 100 nM
11 | CC(C)(C)CCCOc1ccc2c(c1)CCn1c-2cc(OC[C@@H]2COCCO2)nc1=O [Compound 141, 9-(4,4-dimethyl-pentyloxy)-2-((S)-1-[1,4]dioxan-2-ylmethoxy)-6,7-dihydro-pyrimido[6,1-a]isoquinolin-4-one] | 101 to 500 nM
12 | COC(CCc1ccc2c(c1)CCn1c-2cc(OC[C@@H]2COCCO2)nc1=O)C(C)C (stereo partly drawn) [Compound 142, 2-((S)-1-[1,4]dioxan-2-ylmethoxy)-9-(3-methoxy-4-methyl-pentyl)-6,7-dihydro-pyrimido[6,1-a]isoquinolin-4-one] | 0.01 to 100 nM
13 | O=c1nc(OC[C@@H]2COCCO2)cc2n1CCc1cc(NC3CCCCC3)ccc1-2 [Compound 145, 9-cyclohexylamino-2-((S)-1-[1,4]dioxan-2-ylmethoxy)-6,7-dihydro-pyrimido[6,1-a]isoquinolin-4-one] | 101 to 500 nM
14 | CC(C)(C)C(O)CCc1ccc2c(c1)CCn1c-2cc(OC[C@@H]2COCCO2)nc1=O (stereo partly drawn) [Compound 146, 2-((S)-1-[1,4]dioxan-2-ylmethoxy)-9-(3-hydroxy-4,4-dimethyl-pentyl)-6,7-dihydro-pyrimido[6,1-a]isoquinolin-4-one] | 0.01 to 100 nM
15 | COC(C)CCc1ccc2c(c1)CCn1c-2cc(OC[C@@H]2COCCO2)nc1=O (stereo partly drawn) [Compound 148, 2-((S)-1-[1,4]dioxan-2-ylmethoxy)-9-(3-methoxy-butyl)-6,7-dihydro-pyrimido[6,1-a]isoquinolin-4-one] | 0.01 to 100 nM

The next lines start with the values.

Row | IC50 | Compound
16 | 101 to 500 nM | O=c1nc(OC[C@@H]2COCCO2)cc2n1CCc1cc(CCCCO)ccc1-2 [Compound 151, 2-((S)-1-[1,4]dioxan-2-ylmethoxy)-9-(4-hydroxy-butyl)-6,7-dihydro-pyrimido[6,1-a]isoquinolin-4-one]
17 | 501 to 1000 nM | CN(c1ccc2c(c1)CCn1c-2cc(OC[C@@H]2COCCO2)nc1=O)C1CCCCC1 [Compound 152, 9-(cyclohexyl-methyl-amino)-2-((S)-1-[1,4]dioxan-2-ylmethoxy)-6,7-dihydro-pyrimido[6,1-a]isoquinolin-4-one]
18 | 101 to 500 nM | O=c1nc(OC[C@@H]2COCCO2)cc2n1CCc1cc(NCC3CCCCC3)ccc1-2 [Compound 153, 9-(cyclohexylmethyl-amino)-2-((S)-1-[1,4]dioxan-2-ylmethoxy)-6,7-dihydro-pyrimido[6,1-a]isoquinolin-4-one]
19 | 501 to 1000 nM | O=c1nc(OC[C@@H]2COCCO2)cc2n1CCc1cc(NCC3CCOCC3)ccc1-2 [Compound 154, 2-((S)-1-[1,4]dioxan-2-ylmethoxy)-9-[(tetrahydro-pyran-4-ylmethyl)-amino]-6,7-dihydro-pyrimido[6,1-a]isoquinolin-4-one]
20 | 0.01 to 100 nM | CCC(O)(CC)CCc1ccc2c(c1)CCn1c-2cc(OC[C@@H]2COCCO2)nc1=O [Compound 155, 2-((S)-1-[1,4]dioxan-2-ylmethoxy)-9-(3-ethyl-3-hydroxy-pentyl)-6,7-dihydro-pyrimido[6,1-a]isoquinolin-4-one]
21 | 101 to 500 nM | CC(C)(O)CCc1ccc2c(c1)CCn1c-2cc(OC[C@@H]2COCCO2)nc1=O [Compound 156, 2-((S)-1-[1,4]dioxan-2-ylmethoxy)-9-(3-hydroxy-3-methyl-butyl)-6,7-dihydro-pyrimido[6,1-a]isoquinolin-4-one]
22 | 101 to 500 nM | CCC(O)CCc1ccc2c(c1)CCn1c-2cc(OC[C@@H]2COCCO2)nc1=O (stereo partly drawn) [Compound 157, 2-((S)-1-[1,4]dioxan-2-ylmethoxy)-9-(3-hydroxy-pentyl)-6,7-dihydro-pyrimido[6,1-a]isoquinolin-4-one]
23 | 0.01 to 100 nM | O=c1nc(OC[C@@H]2COCCO2)cc2n1CCc1cc(OCC3COC3)ccc1-2 [Compound 163, 2-((S)-1-[1,4]dioxan-2-ylmethoxy)-9-(oxetan-3-ylmethoxy)-6,7-dihydro-pyrimido[6,1-a]isoquinolin-4-one]
24 | 0.01 to 100 nM | O=c1nc(OC[C@H]2COCCO2)cc2n1CCc1cc(OCCCC3CC3)ccc1-2 [Compound 164, 9-(3-cyclopropyl-propoxy)-2-((R)-1-[1,4]dioxan-2-ylmethoxy)-6,7-dihydropyrimido[6,1-a]isoquinolin-4-one]
25 | 0.01 to 100 nM | COCCCc1ccc2c(c1)CCn1c-2cc(OC[C@@H]2COCCO2)nc1=O [Compound 165, 2-((S)-1-[1,4]dioxan-2-ylmethoxy)-9-(3-methoxy-propyl)-6,7-dihydro-pyrimido[6,1-a]isoquinolin-4-one]
26 | 0.01 to 100 nM | O=c1nc(OC[C@@H]2COCCO2)cc2n1CCc1cc(CCC3(O)CCCC3)ccc1-2 [Compound 166, 2-((S)-1-[1,4]dioxan-2-ylmethoxy)-9-[2-(1-hydroxy-cyclopentyl)-ethyl]-6,7-dihydro-pyrimido[6,1-a]isoquinolin-4-one]
27 | 501 to 1000 nM | O=c1nc(OC[C@H]2COCCO2)cc2n1CCc1cc(C#CC3(O)CCOCC3)ccc1-2 [Compound 167, 2-((R)-1-[1,4]Dioxan-2-ylmethoxy)-9-(4-hydroxy-tetrahydro-pyran-4-ylethynyl)-6,7-dihydro-pyrimido[6,1-a]isoquinolin-4-one]
28 | 101 to 500 nM | CCCOCCOc1ccc2c(c1)CCn1c-2cc(OC[C@H]2COCCO2)nc1=O [Compound 172, 2-((R)-1-[1,4]Dioxan-2-ylmethoxy)-9-(2-propoxy-ethoxy)-6,7-dihydro-pyrimido[6,1-a]isoquinolin-4-one]
29 | 501 to 1000 nM | CC(C)OCCOc1ccc2c(c1)CCn1c-2cc(OC[C@H]2COCCO2)nc1=O [Compound 173, 2-((R)-1-[1,4]Dioxan-2-ylmethoxy)-9-(2-isopropoxy-ethoxy)-6,7-dihydro-pyrimido[6,1-a]isoquinolin-4-one]
